Test results as given in publication PMC5855801, “Benzothiophenone Derivatives Targeting Mutant Forms of Estrogen Receptor-α in Hormone-Resistant Breast Cancers” (International Journal of Molecular Sciences, 2018).

Target: T1, ERα (Homo sapiens, UniProt P03372)
T1 construct: endogenous in cells; host or cells: T47DKBluc (ATCC CRL-2865)
T1 sequence (P03372 1-595): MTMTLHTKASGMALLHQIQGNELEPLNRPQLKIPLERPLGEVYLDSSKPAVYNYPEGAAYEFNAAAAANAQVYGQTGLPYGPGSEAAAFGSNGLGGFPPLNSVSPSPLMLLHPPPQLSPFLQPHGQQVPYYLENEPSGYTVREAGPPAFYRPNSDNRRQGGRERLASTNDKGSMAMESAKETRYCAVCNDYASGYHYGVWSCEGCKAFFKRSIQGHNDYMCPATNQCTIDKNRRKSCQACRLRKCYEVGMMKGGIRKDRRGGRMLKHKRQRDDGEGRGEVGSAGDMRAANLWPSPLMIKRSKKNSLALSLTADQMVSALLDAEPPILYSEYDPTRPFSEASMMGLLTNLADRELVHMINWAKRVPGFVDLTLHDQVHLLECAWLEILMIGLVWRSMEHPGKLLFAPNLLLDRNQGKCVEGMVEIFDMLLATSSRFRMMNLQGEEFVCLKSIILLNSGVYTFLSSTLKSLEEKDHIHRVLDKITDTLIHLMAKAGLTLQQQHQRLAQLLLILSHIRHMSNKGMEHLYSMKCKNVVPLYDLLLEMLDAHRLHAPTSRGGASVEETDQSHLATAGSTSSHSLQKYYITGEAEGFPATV
Assay: Estrogen-responsive luciferase reporter transcriptional assay in T47DKBluc cells
Assay type: cell-based
Conditions: 1 nM E2, 24 h, read-out: IC50 against ERα in the luciferase reporter-based transcriptional assay
Protocol: T47DKBluc cells (ATCC® CRL-2865^TM, Manassa, VA, USA) stably transfected with a 3X-ERE–promoter–luciferase reporter gene construct, pGL2.TATA.Inr.luc.neo [38], were used to measure inhibition of ERα-driven transcriptional activity of the luciferase reporter.
This assay was performed as described previously. Briefly, ERα-positive T47DKBluc cells were grown in phenol red-free RPMI 1640 supplemented with 10% CSS for 5 days. The cells were seeded on 96-well plates (2 × 10^4 cells/well). After 24 h, the cells were treated with test compounds in the presence of 1 nM E2. Twenty four hours post-treatment, the cells were lysed with 50 μL of 1× passive lysis buffer (Promega, Madison, WI, USA). Twenty microliters of the lysate from each treatment were transferred onto a white, 96-well, flat-bottomed plate (Corning Life Sciences, Corelle, NY, USA), and the luminescent signal was measured after adding 50 μL of the luciferase assay reagent (Promega, Madison, WI, USA) on a Tecan M200Pro microplate reader (Tecan, Menedorf, Switzerland). Differences in growth were normalised against total protein concentration, which was measured by the bicinchoninic acid (BCA) assay.

CC(=O)N(/N=C1\Sc2c(C)cccc2C1=O)c1ccccc1Cl [VPC-16606]
IC50: 300 nM
